One test deals with T1, human GRF receptor (Homo sapiens, UniProt Q02643).
T1 construct: expressed in transfected cells; host or cells: baby hamster kidney (BHK) cells, stably transfected
T1 sequence (Q02643 23-423): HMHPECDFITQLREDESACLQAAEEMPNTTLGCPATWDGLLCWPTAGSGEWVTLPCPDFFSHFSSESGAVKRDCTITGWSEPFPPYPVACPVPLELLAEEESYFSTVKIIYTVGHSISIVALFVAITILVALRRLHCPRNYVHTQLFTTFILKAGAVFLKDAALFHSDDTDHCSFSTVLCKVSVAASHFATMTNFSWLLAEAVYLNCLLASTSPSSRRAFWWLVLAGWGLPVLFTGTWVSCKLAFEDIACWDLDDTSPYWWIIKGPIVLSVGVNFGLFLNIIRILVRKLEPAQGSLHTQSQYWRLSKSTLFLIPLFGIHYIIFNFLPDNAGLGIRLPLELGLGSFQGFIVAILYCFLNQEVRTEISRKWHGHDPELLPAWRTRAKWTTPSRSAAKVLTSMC
The test is described as follows: Alkaline phosphatase (AP) assay, GHRHr agonist activity. In kind it is cell-based. The settings on record: BHK cells stably expressing human GRF receptor and alkaline phosphatase reporter gene; 24 hrs stimulation; read-out: EC50 (nM) as assessed by alkaline phosphatase (AP) induction. On the procedure:
The activity of representative GRF peptides was tested on baby hamster kidney (BHK) cells stably transfected to express the human GRF receptor and an alkaline phosphatase reporter gene. Cells were cultured 24 hours before stimulation, in 96-well plates, at a concentration of 0.5×10^5 cells/well. Before stimulation, cells were washed twice with DPBS and incubated 10-30 min in assay buffer (DMEM without phenol red supplemented with 20 mM HEPES and 1% heat inactivated fetal bovine serum (FBS). The dose response curve of the GRF peptides was done for 24 hrs with concentrations of peptides from 10^−5 M to 10^−11 M. Supernatant was collected and analysis of alkaline phosphatase levels was performed using the Alkaline Phosphatase detection kit from Applied Biosystems.
The in vitro activity of representative GRF analogs was tested on baby hamster kidney (BHK) cells expressing human GHRHr.

Test [1] relates to Growth Hormone secretion. The test is described as follows: Growth Hormone secretion in female rats after subcutaneous GRF analog. The conditions noted are these: female Sprague-Dawley rats; 10 μg/rat subcutaneous; plasma 0-60 minutes. It counts as in vivo. An excerpt: Sprague-Dawley rats (female, weighting from 250 to 300 g) were obtained from Charles River Inc. Animals were used according to a protocol of the Animal Care Committee along with the principles of the Guide for the Care and Use of Experimental Animals of the Canadian Council on Animal Care. The animals were maintained on standard laboratory chow under a 12:12 light:dark cycle. They were kept in groups of 4 rats per cage.
The animals were anesthetized with isoflurane 2.5%. A mid-section opening was made in the neck to expose the carotid artery. The carotid artery was canulated with polypropylene tubing (PE-50) to allow blood withdrawal. After surgical preparation, rats received a subcutaneous injection of GRF analog (10 μg/rat dissolved in 20 mM AcONa+5% mannitol at pH 5). For pharmacodynamics studies, blood samples (400 μL) were collected from 4 to 8 animals per group per time point. Blood samples (400 μl) were collected via the carotid catheter at 0, 10, 20, 30, 45 and 60 minutes after drug injection. Blood was placed into microtainer pre-treated with K3EDTA and immediately centrifuged at 13,000 RPM in a desktop centrifuge for 2 minutes. The plasma was collected and placed into a screw cap Eppendorf™ and quick frozen in liquid nitrogen. The samples were then kept at −80° C. until assayed. Determination of GH levels was performed as described below.
(§1) Rat and mouse plasma samples were vortexed carefully and centrifuged at 9,000 RPM for 2 min at 4° C. The dosage of GH levels was performed using the Rat/Mouse Growth Hormone ELISA kit from Millipore (Cat. # EZRMGH-45K). Sample supernatants were first diluted 20-fold with the GH ELISA assay buffer, and 10 μl of this dilution was added to the ELISA plate with 90 μl of GH EIA assay buffer. The remaining of the procedure was performed according to the manufacturer's instructions, and the data obtained were analyzed using GraphPad Prism™ software.
(§2) The GRF analogs described herein were tested for their ability to induce GH release in female mice and rats. […] The data are presented in Tables III (mice) and IV-V (rats).

Test [2] deals with Growth Hormone secretion. The test is described as follows: Growth Hormone secretion in female mice after subcutaneous GRF analog. In kind it is in vivo. The settings on record: female CD-1 mice; 10 μg/mouse subcutaneous; plasma 10 minutes after injection.
Text: CD-1 mice (female, weighting from 20 to 25 g) were obtained from Charles River Inc. Animals were used according to a protocol of the Animal Care Committee along with the principles of the Guide for the Care and Use of Experimental Animals of the Canadian Council on Animal Care. The animals were maintained on standard laboratory chow under a 12:12 light:dark cycle. They were kept in groups of 4 mice per cage.
At the day of the experiment, mice received a subcutaneous injection of GRF analog (10 μg/mouse dissolved in 20 mM sodium acetate (AcONa)+5% mannitol at pH 5). 10 minutes after injection, the mice were anesthezied with isolufrane. Blood samples (500 μl) were obtained by intra-cardiac puncture. Blood was placed into microtainer pre-treated with K3EDTA and immediately centrifuged at 13,000 RPM in a desktop centrifuge for 2 minutes. The plasma was collected and placed into a screwcap Eppendorf™ tube and quick frozen in liquid nitrogen. The samples were then kept at −80° C. until assayed. Determination of GH levels was performed as described below.
as §1, §2

Where a SMILES comes first, the peptide text is derived from it.

For orientation: EC50 means the concentration needed to bring the measured effect to its halfway point. With “H-YGDAIFTDSYRKVLAQLKARQDILARAARAAR-NH2 [SEQ ID NO: 34, YGDAIFTDSYRKVLAQLKARQDILARAARAAR-NH2]”, the EC50 on human GRF receptor amounted to 0.2 nM. Also, in the test on Growth Hormone secretion [1], the “Mean AUC (GH Area Under the curve, GH concentration over time)” value is reported as 11046 and the “Mean Cmax (ng/ml) of Growth Hormone secretion” value (from here on “Mean Cmax (ng/ml)”) stood at 539.7 ng/mL.

In the case of “H-YSDAIFTDSYRKVLAQLKARQDILARAARAAR-NH2 [SEQ ID NO: 33, YSDAIFTDSYRKVLAQLKARQDILARAARAAR-NH2]”, the EC50 on human GRF receptor is 0.25 nM. For the same molecule, in the test with Growth Hormone secretion [1], the “Mean AUC (GH Area Under the curve, GH concentration over time)” value is 12467 and the “Mean Cmax (ng/ml)” value is 499.0 ng/mL.

As for `CC[C@H](C)[C@H](NC(=O)[C@H](C)NC(=O)[C@H](CC(=O)O)NC(=O)CNC(=O)[C@@H](N)Cc1ccc(O)cc1)C(=O)N[C@@H](Cc1ccccc1)C(=O)N[C@H](C(=O)N[C@@H](CC(=O)O)C(=O)N[C@@H](CO)C(=O)N[C@@H](Cc1ccc(O)cc1)C(=O)N[C@@H](CCCNC(=N)N)C(=O)N[C@@H](CCCCN)C(=O)N[C@H](C(=O)N[C@@H](CC(C)C)C(=O)N[C@@H](C)C(=O)N[C@@H](CCC(N)=O)C(=O)N[C@@H](CC(C)C)C(=O)N[C@@H](CCCCN)C(=O)N[C@@H](C)C(=O)N[C@@H](CCCNC(=N)N)C(=O)N[C@@H](CCC(N)=O)C(=O)N[C@@H](CC(=O)O)C(=O)N[C@H](C(=O)N[C@@H](CC(C)C)C(=O)N[C@@H](C)C(=O)N[C@@H](CCCNC(=N)N)C(=O)N[C@@H](C)C(=O)N[C@@H](C)C(=O)N[C@@H](CCCNC(=N)N)C(=O)N[C@@H](C)C(=O)N[C@@H](C)C(=O)N[C@@H](CCCNC(=N)N)C(=O)N[C@@H](CCO)C(N)=O)[C@@H](C)CC)C(C)C)[C@@H](C)O` [SEQ ID NO: 36, YGDAIFTDSYRKVLAQLKARQDILARAARAAR-HoSer-NH2] (HELM PEPTIDE1{Y.G.D.A.I.F.T.D.S.Y.R.K.V.L.A.Q.L.K.A.R.Q.D.I.L.A.R.A.A.R.A.A.R.[O=C([C@H](CCO)N[*:1])[*:2]].[am]}$$$$V2.0), the EC50 on human GRF receptor is 0.2 nM. Besides, in the test with Growth Hormone secretion [1], the “Mean AUC (GH Area Under the curve, GH concentration over time)” value stood at 6211 and the “Mean Cmax (ng/ml)” value turned out to be 373.5 ng/mL.

Consider `CC[C@H](C)[C@H](NC(=O)[C@H](C)NC(=O)[C@H](CC(=O)O)NC(=O)[C@@H](C)NC(=O)[C@@H](N)Cc1ccc(O)cc1)C(=O)N[C@@H](Cc1ccccc1)C(=O)N[C@H](C(=O)N[C@@H](CC(=O)O)C(=O)N[C@@H](CO)C(=O)N[C@@H](Cc1ccc(O)cc1)C(=O)N[C@@H](CCCNC(=N)N)C(=O)N[C@@H](CCCCN)C(=O)N[C@H](C(=O)N[C@@H](CC(C)C)C(=O)N[C@@H](C)C(=O)N[C@@H](CCC(N)=O)C(=O)N[C@@H](CC(C)C)C(=O)N[C@@H](CCCCN)C(=O)N[C@@H](C)C(=O)N[C@@H](CCCNC(=N)N)C(=O)N[C@@H](CCC(N)=O)C(=O)N[C@@H](CC(=O)O)C(=O)N[C@H](C(=O)N[C@@H](CC(C)C)C(=O)N[C@@H](C)C(=O)N[C@@H](CCCNC(=N)N)C(=O)N[C@@H](C)C(=O)N[C@@H](C)C(=O)N[C@@H](CCCNC(=N)N)C(=O)N[C@@H](C)C(=O)N[C@@H](C)C(=O)N[C@@H](CCCNC(=N)N)C(=O)N[C@@H](CCO)C(N)=O)[C@@H](C)CC)C(C)C)[C@@H](C)O` [SEQ ID NO: 37, Y-a-DAIFTDSYRKVLAQLKARQDILARAARAAR-HoSer-NH2] (HELM PEPTIDE1{Y.[dA].D.A.I.F.T.D.S.Y.R.K.V.L.A.Q.L.K.A.R.Q.D.I.L.A.R.A.A.R.A.A.R.[O=C([C@H](CCO)N[*:1])[*:2]].[am]}$$$$V2.0), for which the EC50 at human GRF receptor amounted to 0.2 nM. In the test on Growth Hormone secretion [1], the “Mean AUC (GH Area Under the curve, GH concentration over time)” value amounted to 14757 and the “Mean Cmax (ng/ml)” value came to 594.6 ng/mL.

For `CC/C=C/CC(=O)N[C@@H](Cc1ccc(O)cc1)C(=O)N[C@@H](C)C(=O)N[C@@H](CC(=O)O)C(=O)N[C@@H](C)C(=O)N[C@H](C(=O)N[C@@H](Cc1ccccc1)C(=O)N[C@H](C(=O)N[C@@H](CC(=O)O)C(=O)N[C@@H](CO)C(=O)N[C@@H](Cc1ccc(O)cc1)C(=O)N[C@@H](CCCNC(=N)N)C(=O)N[C@@H](CCCCN)C(=O)N[C@H](C(=O)N[C@@H](CC(C)C)C(=O)N[C@@H](C)C(=O)N[C@@H](CCC(N)=O)C(=O)N[C@@H](CC(C)C)C(=O)N[C@@H](CO)C(=O)N[C@@H](C)C(=O)N[C@@H](CCCNC(=N)N)C(=O)N[C@@H](CCC(N)=O)C(=O)N[C@@H](CC(=O)O)C(=O)N[C@H](C(=O)N[C@@H](CCSC)C(=O)N[C@@H](CO)C(=O)N[C@@H](CCCNC(=N)N)C(N)=O)[C@@H](C)CC)C(C)C)[C@@H](C)O)[C@@H](C)CC` [SEQ ID NO: 44, Trans-3-hexenoyl-YADAIFTDSYRKVLAQLSARQDIMSR-NH2] (HELM PEPTIDE1{[CC/C=C/CC(=O)[*:2]].Y.A.D.A.I.F.T.D.S.Y.R.K.V.L.A.Q.L.S.A.R.Q.D.I.M.S.R.[am]}$$$$V2.0), in the test with Growth Hormone secretion [2], the “GH levels 10 min” value came to 15.2 ng/mL. In the test on Growth Hormone secretion [1], the “Mean AUC (GH Area Under the curve, GH concentration over time)” value is listed as 984 and the “Mean Cmax (ng/ml)” value stood at 44.2 ng/mL.

`CC/C=C/CC(=O)N[C@@H](Cc1ccc(O)cc1)C(=O)N[C@@H](C)C(=O)N[C@@H](CC(=O)O)C(=O)N[C@@H](C)C(=O)N[C@H](C(=O)N[C@@H](Cc1ccccc1)C(=O)N[C@H](C(=O)N[C@@H](CC(=O)O)C(=O)N[C@@H](CO)C(=O)N[C@@H](Cc1ccc(O)cc1)C(=O)N[C@@H](CCCNC(=N)N)C(=O)N[C@@H](CCCCN)C(=O)N[C@H](C(=O)N[C@@H](CC(C)C)C(=O)N[C@@H](C)C(=O)N[C@@H](CCC(N)=O)C(=O)N[C@@H](CC(C)C)C(=O)N[C@@H](CCCCN)C(=O)N[C@@H](C)C(=O)N[C@@H](CCCNC(=N)N)C(=O)N[C@@H](CCC(N)=O)C(=O)N[C@@H](CC(=O)O)C(=O)N[C@H](C(=O)N[C@@H](CC(C)C)C(=O)N[C@@H](C)C(=O)N[C@@H](CCCNC(=N)N)C(=O)N[C@@H](C)C(=O)N[C@@H](C)C(=O)N[C@@H](CCCNC(=N)N)C(N)=O)[C@@H](C)CC)C(C)C)[C@@H](C)O)[C@@H](C)CC` [SEQ ID NO: 26, Trans-3-hexenoyl-YADAIFTDSYRKVLAQLKARQDILARAAR-NH2] (HELM PEPTIDE1{[CC/C=C/CC(=O)[*:2]].Y.A.D.A.I.F.T.D.S.Y.R.K.V.L.A.Q.L.K.A.R.Q.D.I.L.A.R.A.A.R.[am]}$$$$V2.0): in the test on Growth Hormone secretion [2], the “GH levels 10 min” value worked out at 484.6 ng/mL. Also, in the test with Growth Hormone secretion [1], the “Mean AUC (GH Area Under the curve, GH concentration over time)” value stood at 8880 and the “Mean Cmax (ng/ml)” value is 468.1 ng/mL.

The values are drawn from patent publication US8361964B2, “Growth hormone releasing factor (GRF) analogs and uses thereof” (Theratechnologies Inc., priority 2011, dated 2013).
